Laboratory results reported in US20250257034A1, “INDOLE DERIVATIVES AS SEROTONERGIC AGENTS USEFUL FOR THE TREATMENT OF DISORDERS RELATED THERETO” (priority 2023, published 2025).
Read-outs that look alike come from different tables or passages of the source.

Tests used:
[1] = Mouse liver microsomes stability; format: in vitro ADME; settings: for microsomal CLint at 2 μM / half-life at 2 μM / CLint scaled at 2 μM: male; for microsomal CLint at 2 μM: mouse, read-out: CLint (μL/min/mg protein); for microsomal CLint at 2 μM / half-life at 2 μM: 2 μM compound; for CLint scaled at 2 μM: read-out: Scaled-up CLint
Protocol: The objective of this study was to estimate in vitro metabolic stability of exemplary compounds of Formula (I) or a pharmaceutically acceptable salt, solvate, and/or prodrug thereof in pooled human, male rat, and male mouse liver microsomes. The concentrations of compounds in reaction systems were evaluated by LC-MS/MS for estimating the stability in pooled human, male rat, and male mouse liver microsomes. The in vitro intrinsic clearances of test compounds were determined as well.
A master solution in the “Incubation Plate” containing phosphate buffer, ultra-pure H2O, MgCl2 solution and liver microsomes was made according to Table 33. The mixture was pre-warmed at 37° C. water bath for 5 minutes.
40 μL of 10 mM nicotinamide adenine dinucleotide phosphate (NADPH) solution was added to each well. The final concentration of NADPH was 1 mM. The negative control samples were prepared by replacing NADPH with 40 μL of ultra-pure H2O. Samples were prepared in duplicate. Negative controls were prepared in singlet.
The reaction was started with the addition of 4 μL of 200 μM exemplary test compounds of the disclosure or control compounds to each master solution to get the final concentration of 2 μM. This study was performed in duplicate.
Aliquots of 50 μL were taken from the reaction solution at 0, 15, 30, 45, and 60 minutes. The reaction solutions were stopped by the addition of 4 volumes of cold methanol with IS (100 nM alprazolam, 200 nM imipramine, 200 nM labet alol and 2 μM ketoprofen). Samples were centrifuged at 3,220 g for 40 minutes. Aliquot of 90 μL of the supernatant was mixed with 90 μL of ultra-pure H2O and then was used for LC-MS/MS analysis.
LC/MS analysis was performed for all samples from this study using a Shimadzu liquid chromatograph separation system equipped with degasser DGU-20A5R; solvent delivery unit LC-30AD; system controller SIL-30AC; column oven CTO-30A; CTC Analytics HTC PAL System. Mass spectrometric analysis was performed using a Triple Quad™ 5500 instrument.
All calculations were carried out using Microsoft Excel. Peak area ratios of test compound to internal standard (listed in the below table) were determined from extracted ion chromatograms.
All calculations were carried out using Microsoft Excel. Peak areas were determined from extracted ion chromatograms. The slope value, k, was determined by linear regression of the natural logarithm of the remaining percentage of the parent drug vs. incubation time curve.
The in vitro half-life (in vitro t1/2) was determined from the slope value:
Conversion of the in vitro t1/2(min) into the in vitro intrinsic clearance (in vitro CLint, in μL/min/mg proteins) was done using the following equation (mean of duplicate determinations): […]
A master solution in the “Incubation Plate” containing phosphate buffer, ultra-pure H2O, MgCl2 solution and liver microsomes was made according to Table 63. The mixture was pre-warmed at 37° C. water bath for 5 minutes.
40 μL of 10 mM NADPH solution was added to each well. The final concentration of NADPH was 1 mM. The negative control samples were prepared by replacing NADPH with 40 μL of ultra-pure H2O. Samples were prepared in duplicate. Negative controls were prepared in singlet.
Conversion of the in vitro t1/2(min) into the in vitro intrinsic clearance (in vitro C Lt, in μL/min/mg proteins) was done using the following equation (mean of duplicate determinations): […]

human 5-HT1A receptor = target: T1, human 5-HT1A receptor (Homo sapiens, UniProt P08908); experiment: Human 5-HT1A radioligand binding assay ([3H]-8-Hydroxy-DPAT); parameters: expressed in transfected cells; host or cells: HTR1A&Gα15-CHO
T1 sequence (P08908 1-422): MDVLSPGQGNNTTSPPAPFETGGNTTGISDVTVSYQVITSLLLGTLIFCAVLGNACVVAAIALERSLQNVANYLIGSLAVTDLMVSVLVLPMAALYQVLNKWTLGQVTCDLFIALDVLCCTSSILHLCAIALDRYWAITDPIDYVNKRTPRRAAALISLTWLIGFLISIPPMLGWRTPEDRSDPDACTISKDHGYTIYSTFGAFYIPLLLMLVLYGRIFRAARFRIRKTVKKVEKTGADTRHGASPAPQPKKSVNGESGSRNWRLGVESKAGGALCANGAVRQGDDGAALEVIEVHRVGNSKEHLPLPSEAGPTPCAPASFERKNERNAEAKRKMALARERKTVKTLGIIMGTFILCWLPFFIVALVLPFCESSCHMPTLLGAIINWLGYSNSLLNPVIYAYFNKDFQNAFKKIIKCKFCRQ
Protocol: The objective of this study was to evaluate the binding properties of test compounds on 5-hydroxytryptamine receptor 1A (5-HT1A).
1. The assay buffer was prepared following Table 21 below.
2. 8 doses of reference and test compounds were prepared starting from 10 mM stock solution as required by 5-fold serial dilutions with 100% (v/v) DMSO.
3. UniFilter-96 GF/B plate was pretreated: • i. 50 μl/well of 0.5% (v/v) PEI was added to UniFilter-96 G F/B plates. The plates were sealed and incubated at 4° C. for 3 hrs. • ii. After incubation, the plates were washed 3 times with ice-cold wash buffer (50 mM Tris, pH7.4).
4. Assay plate was prepared: • i. Cell membrane was diluted with assay buffer and 100 μl/well was added to 96 round well plates to reach a concentration of 20 μg/well. • ii. 8 concentrations of reference or test compounds were prepared and 50 μl/well was added to 96 round deep well plates. • iii. [3H]-8-Hydroxy-DPAT was diluted with assay buffer to 2 nM (4×final concentration) and 50 μl/well was added to 96 round well plates.
5. The plate was centrifuged at 1000 rpm for 30 secs and then agitated at 600 rpm, R.T. for 5 min.
6. The plates were sealed, and the plate was incubated at 27° C. for 90 min.
7. The incubation was stopped by vacuum filtration onto GF/B filter plates followed by 4 times washing with ice-cold wash buffer (50 mM Tris, pH7.4).
9. The filter plates were sealed and 40 μl/well of scintillation cocktail was added.
10. The plate was read by using a Microbeta^2 microplate counter.
1. For reference and test compounds, the results were expressed as % Inhibition, using the normalization equation: N=100-100x(U-C2)/(C1-C2), where U is the unknown value, C1 is the average of high controls, and C2 is the average of low controls.
2. The IC50 was determined by fitting percentage of inhibition as a […] of compound concentrations with Hill equation using XLfit.
The objective of this study was to evaluate the binding properties of test compounds on 5-hydroxytryptamine receptor 1A (5-HTA).
1. The assay buffer was prepared following Table 50 below.
3. UniFilter-96 G FIB plate was pretreated: • i. 50 μl/well of 0.5% (v/v) PEI was added to UniFilter-96 G FIB plates. The plates were sealed and incubated at 4° C. for 3 hrs. • ii. After incubation, the plates were washed 3 times with ice-cold wash buffer (50 mM Tris, pH7.4).
6. The plates were sealed and the plate was incubated at 27° C. for 90 min.

[2] = liver microsomes, Mouse liver microsomes, 0.5 mg/mL microsomes, 1 mM NADPH
[3] = Mouse liver microsomes, 0.5 mg/mL microsomes, 1 mM NADPH, 37° C
[4] = pooled liver microsomes, mouse liver microsomes, 0.5 mg/mL
[5] = pooled liver microsomes, mouse liver microsomes
[6] = mouse liver microsomes, With Cofactors, 0 min
[7] = mouse liver microsomes, With Cofactors, 30 min
[8] = mouse liver microsomes, With Cofactors, 60 min
[9] = mouse liver microsomes, Without Cofactors, 0 min
[10] = mouse liver microsomes, Without Cofactors, 30 min
[11] = mouse liver microsomes, Without Cofactors, 60 min

Row | SMILES | Predicted hepatic CL ([1]; Mouse liver microsomes) | microsomal CLint at 2 μM [1, 2] | half-life at 2 μM [1, 3] | CLint scaled at 2 μM ([1]; Mouse liver microsomes) | IC50 (human 5-HT1A receptor) | microsomal CLint at 2 μM [1, 4] | half-life at 2 μM [1, 4] | CLint scaled at 2 μM [1, 5] | Predicted hepatic CL ([1]; mouse liver microsomes) | Remaining Percentage (%) [1, 6] | Remaining Percentage (%) [1, 7] | Remaining Percentage (%) [1, 8] | Remaining Percentage (%) [1, 9] | Remaining Percentage (%) [1, 10] | Remaining Percentage (%) [1, 11] | IC50 (human 5-HT1A receptor; [3H]-8-Hydroxy-DPAT displacement (Table 51), read-out: h5-HT1A, IC50)
1 | CCN(CC)CCc1c[nH]c2ccc(SC)cc12 [Compound I-12, N,N-Diethyl-2-(5-(methylthio)-1H-indol-3-yl)ethan-1-amine] | 82.50 mL/min/kg | 226 µL/min/mg | 6.13 min | 990 mL/min/kg | 2 nM | – | – | – | – | – | – | – | – | – | – | –
2 | COc1ccc2[nH]cc(CCN3CC[C@@H](OC(F)F)C3)c2c1 [(R) I-67, (R)-3-(2-(3-(Difluoromethoxy)pyrrolidin-1-yl)ethyl)-5-methoxy-1H-indole] | – | – | – | – | 22 nM | 57.4 µL/min/mg | 24.1 min | 251 mL/min/kg | 66.25 mL/min/kg | 100.00% | 43.11% | 17.88% | 100.00% | 103.14% | 109.43% | –
3 | COc1ccc2[nH]cc(CCN(C)CCOC(F)F)c2c1 [Compound I-71, 2-(Difluoromethoxy)-N-(2-(5-methoxy-1H-indol-3-yl)ethyl)-N-methylethan-1-amine] | – | – | – | – | – | 178 µL/min/mg | 7.8 min | 777 mL/min/kg | 80.66 mL/min/kg | 100.00% | 6.96% | 0.66% | 100.00% | 105.81% | 109.68% | 51 nM
4 | CSc1ccc2[nH]cc(CCN(C(C)C)C(C)C)c2c1 [Compound I-17, N-Isopropyl-N-(2-(5-(methylthio)-1H-indol-3-yl)ethyl)propan-2-amine] | >84.35 mL/min/kg | > 307 µL/min/mg | < 4.51 min | > 1340 mL/min/kg | 46 nM | – | – | – | – | – | – | – | – | – | – | –
5 | COc1ccc2[nH]cc(CCN3CC[C@H](OC(F)F)C3)c2c1 [(S) I-67, (S)-3-(2-(3-(Difluoromethoxy)pyrrolidin-1-yl)ethyl)-5-methoxy-1H-indole] | – | – | – | – | 5 nM | 69.3 µL/min/mg | 20 min | 303 mL/min/kg | 69.41 mL/min/kg | 100.00% | 34.21% | 12.49% | 100.00% | 103.46% | 100.35% | –
6 | CCN(C)CCc1c[nH]c2ccc(SC)cc12 [Compound I-13, N-Ethyl-N-methyl-2-(5-(methylthio)-1H-indol-3-yl)ethan-1-amine] | >84.35 mL/min/kg | > 307 µL/min/mg | < 4.51 min | > 1340 mL/min/kg | 2 nM | – | – | – | – | – | – | – | – | – | – | –
7 | CSc1ccc2[nH]cc(CCN(C)C(C)C)c2c1 [Compound I-19, N-Methyl-N-(2-(5-(methylthio)-1H-indol-3-yl)ethyl)propan-2-amine] | 78.36 mL/min/kg | 138 µL/min/mg | 10 min | 606 mL/min/kg | 17 nM | – | – | – | – | – | – | – | – | – | – | –
8 | CN(C)CCc1c[nH]c2ccc(OCCOC(F)F)cc12 [Compound I-128, 2-(5-(2-(Difluoromethoxy)ethoxy)-1H-indol-3-yl)-N,N-dimethylethan-1-amine] | – | – | – | – | 87 nM | 66.7 µL/min/mg | 20.8 min | 292 mL/min/kg | 68.78 mL/min/kg | 100.00% | 37.09% | 13.52% | 100.00% | 89.52% | 87.90% | –
9 | COc1ccc2[nH]cc(CCN3CC[C@@H](OC)C3)c2c1 [(R) I-66, (R)-5-methoxy-3-(2-(3-methoxypyrrolidin-1-yl)ethyl)-1H-indole] | – | – | – | – | 22 nM | 14.1 µL/min/mg | 98.5 min | 61.5 mL/min/kg | 36.55 mL/min/kg | 100.00% | 72.95% | 65.58% | 100.00% | 104.20% | 100.00% | –
10 | CN(CCOC(F)F)CCc1c[nH]c2ccccc12 [Compound I-130, N-(2-(1H-Indol-3-yl)ethyl)-2-(difluoromethoxy)-N-methylethan-1-amine] | – | – | – | – | – | 173 µL/min/mg | 8.03 min | 755 mL/min/kg | 80.41 mL/min/kg | 100.00% | 7.52% | 0.87% | 100.00% | 95.65% | 104.89% | –
